From ChEMBL document CHEMBL5113457, “Withaferin A, a polyfunctional pharmacophore that includes covalent engagement of IPO5, is an inhibitor of influenza A replication” (Bioorg Med Chem, 2022) come the findings set out here.

Calls of active or inactive are those of the source. The rule behind the calls is not given here.

For data set [1], the system named is Influenza A virus. The data set can be described thus: Antiviral activity against drug treated Influenza A virus strain A/Netherlands/604/2009 cell lysate infected in dog MDCK cells assessed as reduction in viral replication at 1 uM and measured after 8 hr by crystal violet staining based plaque assay. The format is functional, organism-based.
The subject of data set [2] is A549. Nature of the data set: Upregulation of HO-1 expression in human A549 cells at 1 uM for 2 to 6 hrs by western blot analysis. It counts as functional, cell-based. The conditions noted are these: time 2-6 hrs. On the technique in general: Immunoblotting shows a protein as a band on a membrane.
The target of data set [3] is T1, Importin-5 (Homo sapiens) (UniProt O00410).
T1 sequence (whole entry): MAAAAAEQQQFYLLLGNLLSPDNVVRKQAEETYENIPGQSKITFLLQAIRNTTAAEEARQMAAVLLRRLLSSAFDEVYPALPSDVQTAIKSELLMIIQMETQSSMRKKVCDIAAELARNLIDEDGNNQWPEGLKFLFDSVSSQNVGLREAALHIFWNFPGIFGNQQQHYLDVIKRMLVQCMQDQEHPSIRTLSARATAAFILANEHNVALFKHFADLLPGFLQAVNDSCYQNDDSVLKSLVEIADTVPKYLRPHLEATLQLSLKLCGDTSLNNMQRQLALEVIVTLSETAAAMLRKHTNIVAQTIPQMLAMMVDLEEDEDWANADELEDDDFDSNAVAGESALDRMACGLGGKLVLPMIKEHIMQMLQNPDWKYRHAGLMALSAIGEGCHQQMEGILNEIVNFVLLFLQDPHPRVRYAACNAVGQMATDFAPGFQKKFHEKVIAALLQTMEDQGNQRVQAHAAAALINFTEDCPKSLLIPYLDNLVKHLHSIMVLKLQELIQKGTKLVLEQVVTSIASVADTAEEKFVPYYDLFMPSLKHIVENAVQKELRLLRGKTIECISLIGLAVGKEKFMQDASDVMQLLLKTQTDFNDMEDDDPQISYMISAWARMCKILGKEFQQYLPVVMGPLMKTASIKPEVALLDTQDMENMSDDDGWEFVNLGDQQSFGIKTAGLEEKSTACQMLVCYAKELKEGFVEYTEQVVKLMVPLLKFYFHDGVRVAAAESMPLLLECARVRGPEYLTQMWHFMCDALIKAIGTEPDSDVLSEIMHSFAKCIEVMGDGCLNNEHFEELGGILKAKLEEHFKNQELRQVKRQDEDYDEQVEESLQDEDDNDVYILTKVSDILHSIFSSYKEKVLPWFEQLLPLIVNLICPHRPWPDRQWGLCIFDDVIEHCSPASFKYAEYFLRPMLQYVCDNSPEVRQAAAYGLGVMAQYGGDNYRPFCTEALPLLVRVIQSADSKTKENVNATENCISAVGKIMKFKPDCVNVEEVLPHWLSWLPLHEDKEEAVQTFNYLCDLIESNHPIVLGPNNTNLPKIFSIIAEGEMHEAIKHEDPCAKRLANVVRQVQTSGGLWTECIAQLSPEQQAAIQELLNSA
The data set can be described thus: Binding affinity to human IPO5 in human PC-3 cell lysate incubated for 30 mins by DTB-Cy3 dye based pull down analysis. It counts as subcellular.

Data set [4] has as its target Annexin A2 (Homo sapiens) (UniProt P07355). The data set can be described thus: Competitive binding affinity to human annexin A2 in human A549 cell lysate at 10 uM for 30 mins followed by GOYA-P treatment for 30 mins by DTB-Cy3 dye based SDS-PAGE analysis. It counts as subcellular. The conditions noted are these: time 60.0 min.
Data set [5] deals with T1, Importin-5 (Homo sapiens). Nature of the data set: Competitive binding affinity to human IPO5 in human PC-3 cell lysate at 10 uM for 30 mins followed by GOYA-P treatment for 30 mins by DTB-Cy3 dye based SDS-PAGE analysis. As to conditions: time 60.0 min. The format is subcellular.
Data set [6] addresses T1, Importin-5 (Homo sapiens). The data set can be described thus: Competitive binding affinity to human IPO5 in human PC-3 cell lysate at 10 uM for 30 mins followed by GOYA-P treatment for 30 mins by DTB-Cy3 dye based pull-down assay. The format is subcellular. As to conditions: time 60.0 min.
The target of data set [7] is T1, Importin-5 (Homo sapiens). The data set can be described thus: Binding affinity to human IPO5 in human PC-3 cell lysate assessed as inhibition of IPO5 interaction with NLS PB1 cargo protein from Influenza A virus at 10 uM for 30 mins by pull-down assay. The format is subcellular.
The test system of data set [8] is Influenza A virus. Nature of the data set: Antiviral activity against Influenza A virus strain A/Netherlands/604/2009 infected in human A549 cells assessed as reduction in influenza virus nucleoprotein production at 1 to 10 uM preincubated for 40 mins followed by virus infection and measured after 4 to 6 hrs by Western blot analysis. The format is functional, organism-based. As to conditions: dose 1-10 µM, time 280-400 min.

Data set [9] relates to Influenza A virus. Nature of the data set: Antiviral activity against Influenza A virus strain A/Netherlands/604/2009 infected in human A549 cells assessed as reduction in influenza virus nucleoprotein production at 2.5 uM preincubated for 40 mins followed by virus infection and measured after 4 to 6 hrs by Western blot analysis. The format is functional, organism-based. The conditions noted are these: time 280-400 min.

Data set [10] concerns Influenza A virus. The data set can be described thus: Antiviral activity against Influenza A virus strain A/Netherlands/604/2009 infected in human A549 cells assessed as reduction in influenza virus nucleoprotein production at 1 uM preincubated for 40 mins followed by virus infection and measured after 4 to 6 hrs by Western blot analysis. It counts as functional, organism-based. As to conditions: time 280-400 min.

Data set [11] deals with A549. The data set can be described thus: Cytotoxicity against human A549 cells assessed as reduction in cell viability at 1 uM for 10 hrs by Hoechst 33342 staining based fluorescence microscopy. The format is toxicity. As to conditions: a549, 10 h.
Data set [12] has as its system Influenza A virus. Nature of the data set: Antiviral activity against drug treated Influenza A virus strain A/Netherlands/604/2009 cell lysate infected in dog MDCK cells assessed as reduction in viral replication at 500 nM and measured after 8 hr by crystal violet staining based plaque assay. The format is functional, organism-based.
The target of data set [13] is Vimentin (Homo sapiens) (UniProt P08670). Nature of the data set: Competitive binding affinity to human Vimentin in human PC-3 cell lysate at 10 uM for 30 mins followed by WA-P1 treatment for 30 mins by SDS gel Cy3 fluorescence based MS/MS analysis. It counts as subcellular. The conditions noted are these: time 60.0 min.
Sequence of Vimentin (Homo sapiens) (P08670 whole entry): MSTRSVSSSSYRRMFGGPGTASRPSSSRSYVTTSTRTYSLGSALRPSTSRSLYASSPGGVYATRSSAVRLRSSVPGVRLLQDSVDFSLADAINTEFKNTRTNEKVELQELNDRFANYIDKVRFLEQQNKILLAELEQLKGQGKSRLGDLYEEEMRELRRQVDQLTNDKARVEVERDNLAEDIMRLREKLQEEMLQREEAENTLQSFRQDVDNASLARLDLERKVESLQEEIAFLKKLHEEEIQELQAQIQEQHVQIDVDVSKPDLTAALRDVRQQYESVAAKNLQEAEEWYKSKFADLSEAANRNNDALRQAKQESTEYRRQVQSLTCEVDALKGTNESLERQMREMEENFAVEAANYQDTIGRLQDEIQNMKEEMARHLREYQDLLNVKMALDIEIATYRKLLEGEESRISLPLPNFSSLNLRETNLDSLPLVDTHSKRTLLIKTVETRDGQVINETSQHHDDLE
Data set [14] has the same target. The data set can be described thus: Competitive binding affinity to human Vimentin in human PC-3 cell lysate at 10 uM for 30 mins followed by WA-P2 treatment for 30 mins by SDS gel Cy3 fluorescence based MS/MS analysis. It counts as subcellular. The conditions noted are these: time 60.0 min.
Data set [15] concerns the target Heat shock protein HSP90 (Homo sapiens) (UniProt P07900+P08238). The data set can be described thus: Binding affinity to recombinant human HSP90 at 10 uM by Western blotting based pull-down assay. The format is protein assay.

Sequence of Annexin A2 (Homo sapiens) (P07355 whole entry): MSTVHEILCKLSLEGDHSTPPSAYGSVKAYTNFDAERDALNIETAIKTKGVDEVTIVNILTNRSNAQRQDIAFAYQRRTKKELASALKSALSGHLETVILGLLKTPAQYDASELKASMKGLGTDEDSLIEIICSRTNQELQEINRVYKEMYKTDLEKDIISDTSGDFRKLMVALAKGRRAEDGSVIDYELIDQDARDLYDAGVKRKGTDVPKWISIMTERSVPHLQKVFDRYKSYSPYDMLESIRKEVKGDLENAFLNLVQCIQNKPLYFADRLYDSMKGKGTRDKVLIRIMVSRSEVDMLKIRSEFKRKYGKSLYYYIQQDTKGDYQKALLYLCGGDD

With `COC(=O)[C@]12CCC(C)(C)C[C@@H]1[C@H]1C(=O)C=C3[C@@]4(C)C=C(C#N)C(=O)C(C)(C)[C@@H]4CC[C@@]3(C)[C@]1(C)CC2`, the outcome in data set [1] and in [2] was Active.

On to `C#CCOCC(=C)C(=O)O[C@H]1C[C@@]2(C)OC(=CC2=O)/C(CO)=C\[C@H]2OC(=O)C(=C)[C@H]12`, for which, in data set [3], the result was Active.

Turning to `CC1=C(CO)C(=O)O[C@@H]([C@@H](C)[C@H]2CC[C@H]3[C@@H]4C[C@H]5O[C@]56[C@@H](O)C=CC(=O)[C@]6(CO)[C@H]4CC[C@]23C)C1`, the outcome in data set [4], in data set [5], in [6], in data set [7], in data set [8] and in [9] was Active. Further, the outcome in data set [10], in data set [1], in [12], in [13], in data set [14] and in data set [2] was Active. For the same compound, the Activity result in data set [11] was “Non-Toxic”.

In the case of `C#CCCC(=O)OCC1=C(C)CC([C@@H](C)[C@H]2CC[C@H]3[C@@H]4C[C@H]5O[C@]56[C@@H](O)C=CC(=O)[C@]6(C)[C@H]4CC[C@]23C)OC1=O` (stereo partly drawn), the Activity result in data set [11] was “Non-Toxic”. The outcome in [1], in data set [12] and in [15] was Active.

As to `C#CCCC(=O)O[C@H]1C=CC(=O)[C@]2(C)[C@H]3CC[C@]4(C)[C@@H]([C@H](C)C5CC(C)=C(CO)C(=O)O5)CC[C@H]4[C@@H]3C[C@H]3O[C@]132` (stereo partly drawn), the Activity entry in data set [11] was “Non-Toxic”. Further, the outcome in [1], in data set [12] and in data set [15] was Active.

Turning to `C=C(C)C(=O)O[C@H]1C[C@@]2(C)OC(=CC2=O)/C(CO)=C\[C@H]2OC(=O)C(=C)[C@H]12` [GOIAZENSOLIDE], the outcome in data set [4], in data set [5] and in data set [1] was Active. Also, the Activity entry in data set [11] is recorded as “Non-Toxic”.
